Molecules are shown by their SMILES. Structures can show the parent of a compound that is named as a salt.

The target in the first test is hBTK (full-length BTK, 6HIS-tag cleaved) (Homo sapiens (Human), UniProt Q06187). Description: BTK enzymatic activity, LANCE TR-FRET assay (Assay Method C). The conditions noted are these: LANCE TR-FRET, 50 pM hBTK, 25 μM ATP; class 100-1000 is given as ≧100 nM-<1 μM; read-out: IC50 Btk activity values - Assay Method C. It counts as biochemical. (Time-resolved FRET reads energy transfer from a long-lived donor to a nearby acceptor.)
Chain of hBTK (full-length BTK, 6HIS-tag cleaved) (Q06187 whole entry): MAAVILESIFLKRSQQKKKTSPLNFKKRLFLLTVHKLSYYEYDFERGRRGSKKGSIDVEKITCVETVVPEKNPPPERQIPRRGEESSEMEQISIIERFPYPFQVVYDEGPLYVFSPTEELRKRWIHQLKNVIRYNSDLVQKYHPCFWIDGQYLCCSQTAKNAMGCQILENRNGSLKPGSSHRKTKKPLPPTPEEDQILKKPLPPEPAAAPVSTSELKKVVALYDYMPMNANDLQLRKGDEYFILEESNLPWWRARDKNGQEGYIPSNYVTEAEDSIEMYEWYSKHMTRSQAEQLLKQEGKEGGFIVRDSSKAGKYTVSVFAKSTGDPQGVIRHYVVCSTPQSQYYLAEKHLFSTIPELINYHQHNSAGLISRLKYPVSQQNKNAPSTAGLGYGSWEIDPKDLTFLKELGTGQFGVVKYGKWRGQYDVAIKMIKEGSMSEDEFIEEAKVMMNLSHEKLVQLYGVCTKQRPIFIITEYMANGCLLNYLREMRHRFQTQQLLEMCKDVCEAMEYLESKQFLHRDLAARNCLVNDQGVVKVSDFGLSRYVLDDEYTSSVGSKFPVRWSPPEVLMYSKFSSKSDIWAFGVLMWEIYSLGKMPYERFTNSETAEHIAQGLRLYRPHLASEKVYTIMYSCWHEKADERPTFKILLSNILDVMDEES
The IC50 is the concentration that gives 50% inhibition. Regarding `CCC(O)C(=O)N1CCC[C@@H](c2nc(-c3ccc(C(=O)Nc4cc(C(F)(F)F)ccn4)cc3)c3c(N)nccn23)C1` (stereo partly drawn) [Example 343, 4-{8-amino-3-[(3R)-1-(2-hydroxybutanoyl)piperidin-3-yl]imidazo[1,5-a]pyrazin-1-yl}-N-[4-(trifluoromethyl)pyridin-2-yl]benzamide], the 50% inhibitory concentration (IC50) is less than 10 nM. Consider `CCOCC(=O)N1CCO[C@@H](c2nc(-c3ccc(C(=O)Nc4cc(C(F)(F)F)ccn4)cc3)c3c(N)nccn23)C1` [Example 518, 4-{8-amino-3-[(2R)-4-(ethoxyacetyl)morpholin-2-yl]imidazo[1,5-a]pyrazin-1-yl}-N-[4-(trifluoromethyl)pyridin-2-yl]benzamide], for which the half-maximal inhibitory concentration (IC50) was less than 10 nM. As to `Cc1cnc(N)c2c(-c3ccc(C(=O)Nc4cc(C(F)(F)F)ccn4)cc3)nc([C@@H]3CCCN(C(=O)C4(C)COC4)C3)n12` [Example 453, 4-(8-amino-5-methyl-3-{(3R)-1-[(3-methyloxetan-3-yl)carbonyl]piperidin-3-yl}imidazo[1,5-a]pyrazin-1-yl)-N-[4-(trifluoromethyl)pyridin-2-yl]benzamide], the IC50 was less than 10 nM. `Nc1ncc(Cl)n2c([C@H]3CN(CCO)CCO3)nc(-c3ccc(C(=O)Nc4cc(C(F)(F)F)ccn4)cc3)c12` [Example 535, 4-{8-amino-5-chloro-3-[(2R)-4-(2-hydroxyethyl)morpholin-2-yl]imidazo[1,5-a]pyrazin-1-yl}-N-[4-(trifluoromethyl)pyridin-2-yl]benzamide, TFA salt]: the IC50 is less than 10 nM. Take `COCC(=O)N1CCC[C@@H](n2nc(-c3ccc(C(=O)Nc4cc(C(F)(F)F)ccn4)cc3)c3c(N)nccc32)C1` [Example 383, 4-{4-amino-1-[(3R)-1-(methoxyacetyl)piperidin-3-yl]-1H-pyrazolo[4,3-c]pyridin-3-yl}-N-[4-(trifluoromethyl)pyridin-2-yl]benzamide]: the half-inhibitory concentration (IC50) was less than 10 nM. The same measure, in the same setting: in the case of `Cc1cc(NC(=O)c2ccc(-c3nc([C@@H]4CCCN(C(=O)C5(C)COC5)C4)n4ccnc(N)c34)cc2)ncc1F` [Example 360, 4-(8-amino-3-{(3R)-1-[(3-methyloxetan-3-yl)carbonyl]piperidin-3-yl}imidazo[1,5-a]pyrazin-1-yl)-N-(5-fluoro-4-methylpyridin-2-yl)benzamide] it was less than 10 nM; in that of `CC(C)N1CC(C(=O)N2CCC[C@@H](c3nc(-c4ccc(C(=O)Nc5cc(C(F)(F)F)ccn5)cc4)c4c(N)nccn34)C2)C1` [Example 329, 4-{8-amino-3-[(3R)-1-{[1-(1-methylethyl)azetidin-3-yl]carbonyl}piperidin-3-yl]imidazo[1,5-a]pyrazin-1-yl}-N-[4-(trifluoromethyl)pyridin-2-yl]benzamide], less than 10 nM. Turning to `CC1(C(=O)N2CCC[C@@](C)(c3nc(-c4ccc(C(=O)Nc5cc(C(F)(F)F)ccn5)cc4)c4c(N)nccn34)C2)COC1` [Example 438, 4-(8-amino-3-{(3R)-3-methyl-1-[(3-methyloxetan-3-yl)carbonyl]piperidin-3-yl}imidazo[1,5-a]pyrazin-1-yl)-N-[4-(trifluoromethyl)pyridin-2-yl]benzamide], the IC50 is less than 10 nM.

For `C[C@H](O)C(=O)N1CCO[C@@H](c2nc(-c3ccc(C(=O)Nc4cc(C(F)(F)F)ccn4)cc3)c3c(N)nccn23)C1` [Example 519, 4-(8-amino-3-{(2R)-4-[(2S)-2-hydroxypropanoyl]morpholin-2-yl}imidazo[1,5-a]pyrazin-1-yl)-N-[4-(trifluoromethyl)pyridin-2-yl]benzamide], the concentration for half-maximal inhibition (IC50) is less than 10 nM. In the case of `CC1(C(=O)N2CCC[C@@H](c3nc(-c4ccc(C(=O)Nc5ccc(C(F)F)cn5)cc4)c4c(N)nccn34)C2)COC1` [Example 355, 4-(8-amino-3-{(3R)-1-[(3-methyloxetan-3-yl)carbonyl]piperidin-3-yl}imidazo[1,5-a]pyrazin-1-yl)-N-[5-(difluoromethyl)pyridin-2-yl]benzamide], the IC50 is less than 10 nM. As for `Nc1nccn2c([C@@H]3CN[C@H](CO)CO3)nc(-c3ccc(C(=O)Nc4cc(C(F)(F)F)ccn4)cc3)c12` [Example 547, 4-{8-amino-3-[(2S,5R)-5-(hydroxymethyl)morpholin-2-yl]imidazo[1,5-a]pyrazin-1-yl}-N-[4-(trifluoromethyl)pyridin-2-yl]benzamide, TFA salt], the IC50 is 10 to 100 nM. On the same count and under the same terms, in the case of `Nc1nccn2c([C@H]3CN(C4COC4)CCO3)nc(-c3ccc(C(=O)Nc4cc(C(F)(F)F)ccn4)cc3)c12` [Example 550, 4-{8-amino-3-[(2R)-4-oxetan-3-ylmorpholin-2-yl]imidazo[1,5-a]pyrazin-1-yl}-N-[4-(trifluoromethyl)pyridin-2-yl]benzamide, TFA salt] it was less than 10 nM; in that of `COCC(=O)N1CCC[C@@H](c2nc(-c3ccc(C(=O)Nc4cc(C(F)(F)F)ccn4)cc3)c3c(N)ncc(Cl)n23)C1` [Example 442, 4-{8-amino-5-chloro-3-[(3R)-1-(methoxyacetyl)piperidin-3-yl]imidazo[1,5-a]pyrazin-1-yl}-N-[4-(trifluoromethyl)pyridin-2-yl]benzamide], less than 10 nM. Consider `Cc1cc(NC(=O)c2ccc(-c3nc([C@@H]4CCCN(C(=O)C5(C)COC5)C4)n4ccnc(N)c34)cc2)no1` [Example 353, 4-(8-amino-3-{(3R)-1-[(3-methyloxetan-3-yl)carbonyl]piperidin-3-yl}imidazo[1,5-a]pyrazin-1-yl)-N-(5-methylisoxazol-3-yl)benzamide], for which the IC50 lay within 100 to 1000 nM. The same measure, in the same setting: under `Nc1nccn2c([C@@H]3CCCN(C(=O)[C@@H]4CC(F)(F)CN4)C3)nc(-c3ccc(C(=O)Nc4cc(C(F)(F)F)ccn4)cc3)c12` [Example 337, 4-{8-amino-3-[(3R)-1-(4,4-difluoro-L-prolyl)piperidin-3-yl]imidazo[1,5-a]pyrazin-1-yl}-N-[4-(trifluoromethyl)pyridin-2-yl]benzamide] stands less than 10 nM; under `C[C@@H](O)C(=O)N1CCC[C@@H](c2nc(-c3ccc(C(=O)Nc4cc(C(F)(F)F)ccn4)cc3)c3c(N)nccn23)C1` [Example 346, 4-(8-amino-3-{(3R)-1-[(2R)-2-hydroxypropanoyl]piperidin-3-yl}imidazo[1,5-a]pyrazin-1-yl)-N-[4-(trifluoromethyl)pyridin-2-yl]benzamide], less than 10 nM. For the molecule `Cc1ccnc(NC(=O)c2ccc(-c3nc([C@@H]4CCCN(C(=O)C5(C)COC5)C4)n4c(Cl)cnc(N)c34)cc2)c1` [Example 446, 4-(8-amino-5-chloro-3-{(3R)-1-[(3-methyloxetan-3-yl)carbonyl]piperidin-3-yl}imidazo[1,5-a]pyrazin-1-yl)-N-(4-methylpyridin-2-yl)benzamide], the IC50 is less than 10 nM.

For the molecule `CCc1ccnc(NC(=O)c2ccc(-c3nn([C@@H]4CCCN(C(=O)C5(C)COC5)C4)c4ccnc(N)c34)cc2)c1` [Example 386, 4-(4-amino-1-{(3R)-1-[(3-methyloxetan-3-yl)carbonyl]piperidin-3-yl}-1H-pyrazolo[4,3-c]pyridin-3-yl)-N-(4-ethylpyridin-2-yl)benzamide], the half-maximal inhibitory concentration (IC50) was less than 10 nM. On the same count and under the same terms, in the case of `N#CC1(C(=O)N2CCC[C@@H](c3nc(-c4ccc(C(=O)Nc5cc(C(F)(F)F)ccn5)cc4)c4c(N)nccn34)C2)CC1` [Example 335, 4-(8-amino-3-{(3R)-1-[(1-cyanocyclopropyl)carbonyl]piperidin-3-yl}imidazo[1,5-a]pyrazin-1-yl)-N-[4-(trifluoromethyl)pyridin-2-yl]benzamide] it was less than 10 nM; in that of `COCC(=O)N1CCO[C@@H](c2nc(-c3ccc(C(=O)Nc4cc(C(F)(F)F)ccn4)cc3)c3c(N)ncc(C)n23)C1` [Example 536, 4-{8-amino-3-[(2R)-4-(methoxyacetyl)morpholin-2-yl]-5-methylimidazo[1,5-a]pyrazin-1-yl}-N-[4-(trifluoromethyl)pyridin-2-yl]benzamide, TFA salt], less than 10 nM. Take `CC1(C(=O)N2CCC[C@@H](c3nc(-c4ccc(C(=O)Nc5ccc(C(F)(F)F)cn5)cc4)c4c(N)nccn34)C2)COC1` [Example 359, 4-(8-amino-3-{(3R)-1-[(3-methyloxetan-3-yl)carbonyl]piperidin-3-yl}imidazo[1,5-a]pyrazin-1-yl)-N-[5-(trifluoromethyl)pyridin-2-yl]benzamide]: the IC50 was 10 to 100 nM. Regarding `COCCC(=O)N1CCC[C@@H](c2nc(-c3ccc(C(=O)Nc4cc(C(F)(F)F)ccn4)cc3F)c3c(N)nccn23)C1` [Example 576, 4-{8-amino-3-[(3R)-1-(3-methoxypropanoyl)piperidin-3-yl]imidazo[1,5-a]pyrazin-1-yl}-3-fluoro-N-[4-(trifluoromethyl)pyridin-2-yl]benzamide, TFA salt], the concentration for half-maximal inhibition (IC50) was less than 10 nM.

For the molecule `COCC(=O)N1CCO[C@@H](c2nc(-c3ccc(C(=O)Nc4cc(C(F)(F)F)ccn4)cc3F)c3c(N)nccn23)C1` [Example 551, 4-{8-amino-3-[(2R)-4-(methoxyacetyl)morpholin-2-yl]imidazo[1,5-a]pyrazin-1-yl}-3-fluoro-N-[4-(trifluoromethyl)pyridin-2-yl]benzamide, TFA salt], the half-inhibitory concentration (IC50) was less than 10 nM. Consider `CC1(C(=O)N2CCC[C@@H](c3nc(-c4ccc(C(=O)Nc5cnsc5)cc4)c4c(N)nccn34)C2)COC1` [Example 370, 4-(8-amino-3-{(3R)-1-[(3-methyloxetan-3-yl)carbonyl]piperidin-3-yl}imidazo[1,5-a]pyrazin-1-yl)-N-isothiazol-4-ylbenzamide], for which the 50% inhibitory concentration (IC50) fell in the range of 10 to 100 nM.

Turning to `COCc1cnc(N)c2c(-c3ccc(C(=O)Nc4cc(C(F)(F)F)ccn4)cc3)nc([C@@H]3CCCN(C(=O)C4(C)COC4)C3)n12` [Example 449, 4-[8-amino-5-(methoxymethyl)-3-{(3R)-1-[(3-methyloxetan-3-yl)carbonyl]piperidin-3-yl}imidazo[1,5-a]pyrazin-1-yl]-N-[4-(trifluoromethyl)pyridin-2-yl]benzamide], the IC50 is less than 10 nM.

Still in this test, the particulars now being: Table D; Assay Method C (LANCE TR-FRET), 50 pM hBTK, 25 μM ATP; read-out: IC50 BTK activity value.
Regarding `CC1(C(=O)N2CCC[C@@H](c3nc(-c4ccc(C(=O)Nc5ccc(C(F)F)cn5)cc4)c4c(N)nccn34)C2)COC1` [Example 355, 4-(8-amino-3-{(3R)-1-[(3-methyloxetan-3-yl)carbonyl]piperidin-3-yl}imidazo[1,5-a]pyrazin-1-yl)-N-[5-(difluoromethyl)pyridin-2-yl]benzamide], the half-maximal inhibitory concentration (IC50) came to 1.33 nM. `C[C@@H](O)C(=O)N1CCC[C@@H](c2nc(-c3ccc(C(=O)Nc4cc(C(F)(F)F)ccn4)cc3)c3c(N)nccn23)C1` [Example 346, 4-(8-amino-3-{(3R)-1-[(2R)-2-hydroxypropanoyl]piperidin-3-yl}imidazo[1,5-a]pyrazin-1-yl)-N-[4-(trifluoromethyl)pyridin-2-yl]benzamide]: the half-inhibitory concentration (IC50) was 0.219 nM. `COCc1cnc(N)c2c(-c3ccc(C(=O)Nc4cc(C(F)(F)F)ccn4)cc3)nc([C@@H]3CCCN(C(=O)C4(C)COC4)C3)n12` [Example 449, 4-[8-amino-5-(methoxymethyl)-3-{(3R)-1-[(3-methyloxetan-3-yl)carbonyl]piperidin-3-yl}imidazo[1,5-a]pyrazin-1-yl]-N-[4-(trifluoromethyl)pyridin-2-yl]benzamide]: the IC50 was found to be 0.656 nM.

Values taken from patent US9718828B2 (MERCK SHARP & DOHME CORP., priority 2011, dated 2017).
